{
  "source": "paper PMC9837035",
  "about": "(Nature Communications, 2023)",
  "key": {"[1]": {"tested_on": "BGLT3 RNA in HUDEP-2 cells", "test": "RT-qPCR of BGLT3 in HUDEP-2 cells", "assay_type": "cell-based, human", "details": "Sup.Fig.11a; relative to DMSO = 1; replicate values", "method": "(§1) Total cellular RNA was prepared using the Tissue Total RNA Mini Kit (FAVORGEN), and cDNA was synthesized using ReverTra Ace Master Mix (TOYOBO). Expression of target genes was analyzed using THUNDERBIRD SYBR qPCR Mix (TOYOBO) on a CFX Connect Real Time System (Bio-Rad). The qPCR data were acquired on CFX Maestro (Bio-Rad). Primers are listed in Supplementary Table 10. GAPDH was used as a reference. Primers were purchased from INTEGRATED DNA TECHNOLOGIES or FASMAC."}, "[2]": {"tested_on": "BGLT3-knockdown HUDEP-2 cells", "test": "RT-qPCR of BGLT3, β- and γ-globin in BGLT3-knockdown HUDEP-2 cells", "assay_type": "cell-based, human", "details": "1 μM, relative to shctrl DMSO = 1, replicate values", "method": "as §1\nRetroviral infection was used as previously described to establish cell lines stably expressing BGLT3 and transfected with the pCX4-pur vector, as well as knockdown cell lines transfected with the pSUPER vector[58]. Briefly, retroviruses were produced by transfecting PLAT-E cells with pCX4-pur-BGLT3 or pSUPER-ctrl, pSUPER-BGLT3, or pSUPER-G9a using 5 μg/mL polyethylenimine MAX (PEI MAX, Polysciences). Two days after transfection, the culture supernatant was collected and filtered through a 0.45-μm filter (Millipore) and used for infection with 8 μg/mL polybrene (Sigma). Forty-eight hours after infection, the infected cells were selected with 0.2 μg/mL puromycin (InvivoGen). The clonal puromycin-resistant cells were established via limiting dilution. The desired clones were confirmed by western blotting or qPCR."}, "[3]": {"tested_on": "H3K9ac at the β-globin locus", "test": "ChIP-qPCR with antibody against H3K9ac in HUDEP-2 cells", "assay_type": "cell-based, human", "design": "ChIP-qPCR using antibodies against H3K9ac in HUDEP-2 cells treated with SAHA: unit not given here", "details": "for ChIP-qPCR using antibodies against H3K9ac in HUDEP-2 cells treated with SAHA: experiments 1-3, a/b replicates", "method": "A total of 0.5–1 × 10^6 cells were cross-linked with 1% formaldehyde for 10 min at room temperature and the reaction was quenched with 250 mM glycine. Cross-linked cells were then lysed with buffer 1 (15 mM Tris-HCl (pH 7.5), 60 mM KCl, 15 mM NaCl, 5 mM MgCl2, 0.1 mM EGTA, 300 mM sucrose, […], 1 mM phenylmethanesulfonyl fluoride (PMSF), 0.5% NP40) and incubated on ice for 10 min. […] After centrifugation, the pellet was then re-suspended in MNase buffer (50 mM Tris-HCl (pH 7.5), 1 mM CaCl2, 4 mM MgCl2, 320 mM sucrose, 1 mM PMSF) and digested with 100 U of micrococcal nuclease (Takara) at 37 °C for 15 min. […] Beads were washed sequentially once with the following buffers: wash buffer A (50 mM Tris-HCl (pH 7.5), 75 mM NaCl, 10 mM EDTA, 0.01% NP40), wash buffer B (50 mM Tris-HCl (pH 7.5), 100 mM NaCl, 10 mM EDTA, 0.01% NP40), wash buffer C (50 mM Tris-HCl (pH 7.5), 175 mM NaCl, 10 mM EDTA, 0.01% NP40). After treatment with proteinase K in buffer 4 (20 mM Tris-HCl (pH 8.0), 10 mM EDTA, 400 mM NaCl, 0.5% SDS) at 56 °C overnight, DNA was purified using the FastGene Gel/PCR Extraction Kit (Nippon Genetics). The samples were analyzed by qPCR. Primers are listed in Supplementary Table 10. ChIP-seq experiments were performed by GENEWIZ. Tracks were visualized using the integrative genome viewer. ChIP-seq analysis were analyzed Cutadapt (V1.9.1) for QC, FastQC (V0.10.1) for QC assessment, Bowtie (V2.1.0) for mapping, strand cross-correlation (SCC) for ChIP quality assessment, MACS2 for peak calling, and R package ChIPpeakAnno for Peak annotated."}, "[4]": {"tested_on": "rat myoblast cell line H9c2", "test": "Cell viability assay (WST-8), H9c2", "assay_type": "cell-based", "details": "control (0 μM) = 100", "method": "(§2) A WST-8 (2-(2-methoxy-4-nitrophenyl)-3-(4-nitrophenyl)-5-(2,4-disulfophenyl)-2H-tetrazolium) assay using a Cell Counting Kit-8 (DOJINDO) was performed to measure cell viability using an EnSpire microplate reader (PerkinElmer)."}, "[5]": {"test": "Cell viability assay (WST-8), HUDEP-2", "assay_type": "cell-based, human", "details": "human, HUDEP-2 cells, control (0 μM) = 100", "method": "as §2"}, "HUDEP-2 cells": {"tested_on": "HUDEP-2 cells", "test": "Cell viability assay (WST-8), HUDEP-2", "assay_type": "cell-based, human", "details": "control (0 μM) = 100", "method": "as §2"}, "mice": {"tested_on": "mice", "test": "Mouse acute toxicity assay, survival", "assay_type": "in vivo", "details": "intravenous, 2-week observation", "method": "All animal studies were approved by the Institutional Committee for Animal Experiments of the Institute of Microbial Chemistry, and were performed in accordance with relevant guidelines and regulations to minimize animal suffering. Four-week-old female ICR mice were purchased from Charles River Breeding Laboratories (Yokohama, Japan) and maintained in a specific pathogen-free barrier facility. […] Samples were dissolved in saline containing 10% DMSO and 1% Tween 80 and injected intravenously into mice."}},
  "note": "Where “and” joins values, the source holds several entries; their conditions need not be identical. Equal entries are not always repeated.",
  "data": [
    {"smiles": "O=C(CCCCCCC(=O)Nc1ccccc1)NO", "note": "[SAHA]", "values": [
      {"measurement": "BGLT3 expression in HUDEP-2 cells", "setting": "[1]", "result": "4.739 and 6.125 and 5.109"},
      {"measurement": "β-globin gene in BGLT3-knockdown HUDEP-2 cells", "setting": "[2]; shBGLT3 #1", "result": "2.301 and 2.189 and 2.546"},
      {"measurement": "γ-globin gene in BGLT3-knockdown HUDEP-2 cells", "setting": "[2]; shBGLT3 #1", "result": "4.852 and 4.747 and 4.193"},
      {"measurement": "β-globin gene in BGLT3-knockdown HUDEP-2 cells", "setting": "[2]; shBGLT3 #2", "result": "1.2128 and 1.2413 and 1.0394"},
      {"measurement": "γ-globin gene in BGLT3-knockdown HUDEP-2 cells", "setting": "[2]; shBGLT3 #2", "result": "3.094 and 3.659 and 2.955"},
      {"measurement": "β-globin gene in BGLT3-knockdown HUDEP-2 cells", "setting": "[2]; shBGLT3 #3", "result": "2.448 and 2.303 and 2.192"},
      {"measurement": "γ-globin gene in BGLT3-knockdown HUDEP-2 cells", "setting": "[2]; shBGLT3 #3", "result": "2.0995 and 2.031 and 1.807"},
      {"measurement": "β-globin gene in BGLT3-knockdown HUDEP-2 cells", "setting": "[2]; shctrl", "result": "3.928 and 4.654 and 3.722"},
      {"measurement": "γ-globin gene in BGLT3-knockdown HUDEP-2 cells", "setting": "[2]; shctrl", "result": "13.6262 and 15.6907 and 11.2259"},
      {"measurement": "ChIP-qPCR using antibodies against H3K9ac in HUDEP-2 cells treated with SAHA", "setting": "[3]; BGLT3 locus", "result": "4.594 and 4.901 and 3.587 and 4.136 and 7.628 and 5.8678"},
      {"measurement": "ChIP-qPCR using antibodies against H3K9ac in HUDEP-2 cells treated with SAHA", "setting": "[3]; HS1", "result": "3.554 and 4.79 and 1.956 and 6.9673 and 5.354"},
      {"measurement": "ChIP-qPCR using antibodies against H3K9ac in HUDEP-2 cells treated with SAHA", "setting": "[3]; HS2", "result": "3.581 and 3.815 and 1.139 and 1.6187 and 3.866 and 3.138"},
      {"measurement": "ChIP-qPCR using antibodies against H3K9ac in HUDEP-2 cells treated with SAHA", "setting": "[3]; HS3", "result": "2.6549 and 2.681 and 1.467 and 2.973 and 2.979"},
      {"measurement": "ChIP-qPCR using antibodies against H3K9ac in HUDEP-2 cells treated with SAHA", "setting": "[3]; HS4", "result": "3.747 and 4.945 and 3.035 and 2.8654 and 4.964 and 4.658"},
      {"measurement": "histone H3 acetylation at the β-globin gene locus", "setting": "[3]; HUDEP-2, 1 μM, 1 day", "result": "increased"},
      {"measurement": "ChIP-qPCR using antibodies against H3K9ac in HUDEP-2 cells treated with SAHA", "setting": "[3]; β-globin promoter", "result": "1.524 and 1.253 and 1.188 and 2.806 and 2.767"},
      {"measurement": "ChIP-qPCR using antibodies against H3K9ac in HUDEP-2 cells treated with SAHA", "setting": "[3]; γ-globin promoter", "result": "0.7378 and 1.324 and 1.03 and 1.066 and 1.991 and 1.048"},
      {"measurement": "ChIP-qPCR using antibodies against H3K9ac in HUDEP-2 cells treated with SAHA", "setting": "[3]; δ-globin promoter", "result": "4.601 and 5.375 and 3.661 and 4.076 and 5.898 and 5.487"}
    ]},
    {"smiles": "COc1cc2c(NC3CCN(C(C)C)CC3)nc(N3CCC(F)(F)CC3)nc2cc1OCCCN1CCCC1", "note": "[UNC0642]", "values": [
      {"measurement": "cell viability in H9c2 cells", "setting": "[4]; 0.039 μM", "result": "113.444 and 97.977 and 82.062"},
      {"measurement": "cell viability in H9c2 cells", "setting": "[4]; 0.156 μM", "result": "119.033 and 94.058 and 85.452"},
      {"measurement": "cell viability in H9c2 cells", "setting": "[4]; 0.625 μM", "result": "120.242 and 96.207 and 89.831"},
      {"measurement": "cell viability in H9c2 cells", "setting": "[4]; 2.5 μM", "result": "126.737 and 89.381 and 103.107"},
      {"measurement": "cell viability in H9c2 cells", "setting": "[4]; 10.0 μM", "result": "69.940 and 117.826 and 118.079"},
      {"measurement": "viability at 0.00457247 μM", "setting": "[5]; 0.00457247 μM", "result": 97.1, "unit": "%"},
      {"measurement": "viability at 0.0137174 μM", "setting": "[5]; 0.0137174 μM", "result": 87.4, "unit": "%"},
      {"measurement": "viability at 0.0411523 μM", "setting": "[5]; 0.0411523 μM", "result": 86.5, "unit": "%"},
      {"measurement": "viability at 0.123457 μM", "setting": "[5]; 0.123457 μM", "result": 92.1, "unit": "%"},
      {"measurement": "viability at 0.37037 μM", "setting": "[5]; 0.37037 μM", "result": 85.8, "unit": "%"},
      {"measurement": "viability at 1.11111 μM", "setting": "[5]; 1.11111 μM", "result": 85.2, "unit": "%"},
      {"measurement": "viability at 3.33333 μM", "setting": "[5]; 3.33333 μM", "result": 54.8, "unit": "%"},
      {"measurement": "viability at 10 μM", "setting": "[5]; 10 μM", "result": 8.77, "unit": "%"},
      {"measurement": "cell viability in HUDEP-2 cells", "setting": "HUDEP-2 cells; 0.00457247 μM", "result": "98.5098 and 95.7411"},
      {"measurement": "cell viability in HUDEP-2 cells", "setting": "HUDEP-2 cells; 0.0137174 μM", "result": "90.6667 and 93.356"},
      {"measurement": "cell viability in HUDEP-2 cells", "setting": "HUDEP-2 cells; 0.0411523 μM", "result": "91.9216 and 91.6525"},
      {"measurement": "cell viability in HUDEP-2 cells", "setting": "HUDEP-2 cells; 0.123457 μM", "result": "105.098 and 92.3339"},
      {"measurement": "cell viability in HUDEP-2 cells", "setting": "HUDEP-2 cells; 0.37037 μM", "result": "89.4118 and 91.9932"},
      {"measurement": "cell viability in HUDEP-2 cells", "setting": "HUDEP-2 cells; 1.11111 μM", "result": "93.8039 and 89.2675"},
      {"measurement": "cell viability in HUDEP-2 cells", "setting": "HUDEP-2 cells; 3.33333 μM", "result": "61.4902 and 56.2181"},
      {"measurement": "cell viability in HUDEP-2 cells", "setting": "HUDEP-2 cells; 10 μM", "result": "12.549 and 12.2658"},
      {"measurement": "Number of alive mice", "setting": "mice; 1.5625 mg/kg", "result": "3/3"},
      {"measurement": "Number of alive mice", "setting": "mice; 3.125 mg/kg", "result": "3/3"},
      {"measurement": "Number of alive mice", "setting": "mice; 6.25 mg/kg", "result": "2/3"},
      {"measurement": "Number of alive mice", "setting": "mice; 12.5 mg/kg", "result": "1/3"},
      {"measurement": "Number of alive mice", "setting": "mice; 25 mg/kg", "result": "0/3"}
    ]}
  ]
}
